Tested on: MDA-MB-231
Test: Seahorse XF96 mitochondria stress test (OCR), MDA-MB-231
Format: cell-based
From the text: With the previous biological data pointing towards metabolic changes, we sought to explore further the effect 2a had on redox metabolism. The ETC is a complicated biological system that is constantly changing in response to external stress in order to achieve redox homeostasis within the cell. With the DEG data alluding to involvement of ETC genes (Fig. 9A), we then decided to look in depth at the effect of complexes on these biological parameters. We next performed oxygen consumption rate (OCR) experiments by Seahorse 96XF to quantify the effect of 2a on mitochondrial bioenergetics or stress (MitoStress) (Fig. 9B and C).[87] A series of known inhibitors of the various parts of the ETC that allow for the measurement of specific parameters were used. […] ATP linked respiration was also calculated and found to be decreased by more than 80% at 3 μM treatment (Fig. 9F). […]
For the wells that were pre-treated with NAC, a stock solution of NAC in DMEM was added at a concentration of 10 mM for 2 h prior to the addition of 2a. […] The cells were then analyzed using FACS with the FITC channel […]
Mitochondrial Metabolism Analysis with Seahorse XF96 Analysis. […] The optimum conditions were determined to be 30,000 cells/well and an FCCP injection concentration of 0.6 µM. […]

C[N+](C)=C1[S][Au-2]2([S]1)[c]1ccccc1Cc1cccc[n+]12.F[P-](F)(F)(F)(F)F (centres unmarked) [2a]
Decrease of maximal OCR (MDA-MB-231, 1 μM, within 50 minutes, compared to control): more than 25%
Decrease of basal OCR (MDA-MB-231, 3 μM, 17 minutes from injection): more than 20%
